{
  "source": "patent US8058451B2",
  "about": "“Hydroxycucurbituril derivatives, their preparation methods and uses” (Postech Foundation, priority 2002, dated 2011)",
  "key": {"[1]": {"assay": "Host-guest complex formation with tetrahydrofuran in D2O", "assay_type": "binding", "conditions": "6.6 mg host, 10 μL tetrahydrofuran, 0.5 mL D2O", "description": "6.6 mg of hydroxycucurbit[6]uril (CB[6]^OH) prepared in Synthesis Example 1 and 10 μL of tetrahydrofuran were dissolved in 0.5 mL of D2O."}, "[2]": {"assay": "Host-guest complex formation with p-toluidine hydrochloride in D2O", "assay_type": "binding", "conditions": "6.6 mg host, 1.5 mg p-toluidine hydrochloride, 0.5 mL D2O", "description": "6.6 mg of hydroxycucurbit[6]uril (CB[6]^OH) prepared in Synthesis Example 1 and 1.5 mg of p-toluidine hydrochloride were dissolved in 0.5 mL of D2O."}, "[3]": {"assay": "Host-guest complex formation with acetylcholine chloride in D2O", "assay_type": "binding", "conditions": "6.6 mg host, 2.0 mg acetylcholine chloride, 0.5 mL D2O", "description": "To investigate whether the hydroxycucurbituril derivatives prepared in Synthesis Example 1 can effectively transport physiologically active materials or drugs, the following example was carried out using acetylcholine chloride as a neurotransmitter."}, "[4]": {"assay": "Host-guest complex formation with p-toluidine in D2O", "assay_type": "binding", "conditions": "6.6 mg host, 1.2 mg p-toluidine, 0.5 mL D2O", "description": "6.6 mg of hydroxycucurbit[6]uril (CB[6]^OH) prepared in Synthesis Example 1 and 1.2 mg of p-toluidine were dissolved in 0.5 mL of D2O."}, "[5]": {"assay": "Host-guest complex formation with 1,4-phenylindiamine in D2O", "assay_type": "binding", "conditions": "6.6 mg host, 1.2 mg 1,4-phenylindiamine, 0.5 mL D2O", "description": "6.6 mg of hydroxycucurbit[6]uril (CB[6]^OH) prepared in Synthesis Example 1 and 1.2 mg of 1,4-phenylindiamine were dissolved in 0.5 mL of D2O."}, "[6]": {"assay": "Host-guest complex formation with isobutene gas in D2O", "assay_type": "binding", "conditions": "6.6 mg host in 0.5 mL D2O, isobutene gas injected"}, "[7]": {"assay": "Host-guest complex formation with cyclopentane in D2O", "assay_type": "binding", "conditions": "6.6 mg host, 10 μL cyclopentane, 0.5 mL D2O", "description": "6.6 mg of hydroxycucurbit[6]uril (CB[6]^OH) prepared in Synthesis Example 1 and 10 μL of cyclopentane were dissolved in 0.5 mL of D2O."}, "[8]": {"assay": "Ion selective electrode responses to ammonium, potassium, sodium, choline and acetylcholine ions", "description": "1% by weight of allyoxycucurbit[6]uril prepared in Synthesis Example 8, 33% by weight of polyvinylchloride and 66% by weight of 2-nitrophenyloctylether were dissolved in THF to form a membrane. With this membrane, an ion selective electrode was fabricated. Then, the responses of the electrode with respect to ammonium ion, potassium ion, sodium ion, choline ion and acetylcholine ion were measured in a 0.01M Tris-buffered solution. As a result, the selectivity of choline with respect to acetylcholine was −1.84, ammonium ion −1.31, potassium ion −0.90 and sodium ion −1.16, respectively. The allyloxycurcubit[6]uril according to the present invention can be advantageously used in clinical analysis by selective detection of a neurotransmitter in vivo, e.g., acetylcholine, instead of choline which is a major obstacle in analyzing acetylcholine. The ion selective electrode using allyoxycucurbit[6]uril can be used in measuring acetylcholine in a concentration range of 2.1×10^−6 M."}, "[9]": {"assay": "Binding constant measurement by microcalorimeter (VP-ITC) with KCl solution", "conditions": "0.05 M Tris-buffered solution pH 7.2; 5.5 mM host, 110 mM KCl", "description": "Since the hydroxycucurbituril derivatives obtained in Synthesis Example 1 have Lewis base atoms near the cavities of the molecule, they can effectively form a complex with metal ions or positively charged organic compounds. With these features, in order to investigate whether the hydroxycucurbituril derivatives having this property can be applied in manufacturing sensors for sensing metal ions or ammonium ions, the following example was carried out.\nA 0.05 M Tris-buffered solution of pH 7.2 was prepared, and then a 5.5 mM hydroxycucurbit[5]uril (CB[5]^OH) solution prepared in Synthesis Example 2 and 110 mM of a KCl solution were prepared. Then, the binding constants of the cucurbit[5]uril derivative was measured using a microcalorimeter (VP-ITC, manufactured by MicroCal)."}, "[10]": {"assay": "Binding of ammonium ions in organic solvent (CD3CN)", "conditions": "5.5 mg host, 6.7 mg (NH4)+(BPh4)-, 0.5 mL CD3CN", "description": "To investigate whether ammonium ions present in an organic solvent can bind with CB[5]^OH, the following example was carried out.\n5.5 mg of CB[5]^OH prepared in Synthesis Example 2 and 6.7 mg of (NH4)^+(BPh4)^− were dissolved in 0.5 mL CD3CN. Then, ammonium ions in (NH4)^+(BPh4)^− could bind with CB[5]^OH in an acetonitrile solution."}, "[11]": {"assay": "Ion selective electrode, potential differences on adding lead ions", "conditions": "1 mM Mg(OAc)2-HCl buffered solution pH 4; lead ions 10^-6 M to 10^-3 M", "description": "A solution obtained by dissolving 1% by weight of CB[5]^OH prepared in Synthesis Example 2 in 0.1 mL of methanol, 33% by weight of polyvinylchloride used as a polymer support, 65.6% by weight of 2-nitrophenyloctylether used as a plasticizer and 0.4 mL of tetrahydrofuran dissolved in 0.4% by weight of potassium tetrakis(4-chlorophenyl)borate, were homogenously mixed, followed by slowly removing the solvent, to form an ion selective membrane. An ion selective electrode was fabricated with this ion selective membrane. An electrode with a silver wire coated with silver chloride in a 0.05 M aqueous KCl solution was used as a reference electrode.\nThe reference electrode and the ion selective electrode were immersed in 250 mL of 1 mM Mg(OAc)2—HCl buffered solution (pH=4), followed by continuously stirring for at least 1 hour until a membrane boundary potential was stabilized. Thereafter, potential differences were measured with adding lead ions to increase the concentration by 10 fold in the range of 10^−6 M to 10^−3 M using a micropipet at an interval of 100 seconds"}},
  "data": [
    {"substance": "hydroxycucurbit[6]uril [CB[6]^OH]", "values": [
      {"measurement": "host-guest complex formation with tetrahydrofuran", "setting": "[1]", "value": "Quantitative formation of a 1:1 host-guest complex"},
      {"measurement": "host-guest complex formation with p-toluidine hydrochloride", "setting": "[2]", "value": "Quantitative formation of a 1:1 host-guest complex"},
      {"measurement": "host-guest complex formation with acetylcholine chloride", "setting": "[3]", "value": "forming a 1:1 host-guest complex"},
      {"measurement": "host-guest complex formation with p-toluidine", "setting": "[4]", "value": "Quantitative formation of a 1:1 host-guest complex"},
      {"measurement": "host-guest complex formation with 1,4-phenylindiamine", "setting": "[5]", "value": "Quantitative formation of a 1:1 host-guest complex"},
      {"measurement": "host-guest complex formation with isobutene gas", "setting": "[6]", "value": "forming a 1:1 host-guest complex"},
      {"measurement": "host-guest complex formation with cyclopentane", "setting": "[7]", "value": "Quantitative formation of a 1:1 host-guest complex"}
    ]},
    {"substance": "Allyloxycucurbit[6]uril [allyoxycucurbit[6]uril]", "values": [
      {"measurement": "concentration range in which acetylcholine can be measured", "setting": "[8]", "value": 2.1, "unit": "µM"}
    ]},
    {"substance": "hydroxycucurbit[5]uril [CB[5]^OH]", "values": [
      {"measurement": "binding with alkali metal ions and ammonium ions (microcalorimeter)", "setting": "[9]", "value": "could selectively bind with alkali metal ions, as well as with ammonium ions"},
      {"measurement": "binding of ammonium ions of (NH4)+(BPh4)- in acetonitrile solution", "setting": "[10]", "value": "could bind"},
      {"measurement": "ion selective electrode detection of heavy metal ions (lead)", "setting": "[11]", "value": "could be used in detecting harmful heavy metal ions remaining in water"}
    ]}
  ]
}
